molecular target: PARP7 (Homo sapiens (Human), UniProt Q7Z3E1); experiment: Enzymatic assay for inhibition of PARP7: TR-FRET displacement of biotinylated Probe A from the TIPARP active site; type: binding; conditions: Table A-1
In short: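 TR-FRET, ex 320 nm / em 615 and 665 nm. Signal ratio reflects complex formation.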

Chain of PARP7 (Q7Z3E1 whole entry): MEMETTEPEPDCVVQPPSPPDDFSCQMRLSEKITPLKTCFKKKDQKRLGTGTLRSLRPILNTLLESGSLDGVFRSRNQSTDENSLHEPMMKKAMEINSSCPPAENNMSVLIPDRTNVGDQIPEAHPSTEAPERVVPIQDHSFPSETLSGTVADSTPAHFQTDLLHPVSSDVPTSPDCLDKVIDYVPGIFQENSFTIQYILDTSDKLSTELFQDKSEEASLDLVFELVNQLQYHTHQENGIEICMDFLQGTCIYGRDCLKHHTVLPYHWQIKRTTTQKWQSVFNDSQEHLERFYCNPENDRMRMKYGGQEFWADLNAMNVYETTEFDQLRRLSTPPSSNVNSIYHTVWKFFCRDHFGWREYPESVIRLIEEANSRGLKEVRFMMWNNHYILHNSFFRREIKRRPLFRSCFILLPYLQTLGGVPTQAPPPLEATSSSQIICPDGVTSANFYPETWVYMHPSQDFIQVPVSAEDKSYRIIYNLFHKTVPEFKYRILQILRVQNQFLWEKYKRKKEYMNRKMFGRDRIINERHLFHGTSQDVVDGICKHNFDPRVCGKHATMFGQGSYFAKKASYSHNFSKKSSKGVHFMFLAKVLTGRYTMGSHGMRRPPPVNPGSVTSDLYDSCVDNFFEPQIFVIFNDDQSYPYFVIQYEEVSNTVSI

Molecule | IC50 [nM]
COC[C@H](COCCC(=O)N1CCN(c2cnc(Cl)cn2)CC1)Oc1cn[nH]c(=O)c1C(F)(F)F [Example 697, (R)-5-((1-(3-(4-(5-Chloropyrazin-2-yl)piperazin-1-yl)-3-oxopropoxy)-3-methoxypropan-2-yl)oxy)-4-(trifluoromethyl)pyridazin-3(2H)-one] | 100 to 1000
CC(=O)N1CCC[C@@H]2CN(c3cn[nH]c(=O)c3C(F)(F)F)C[C@@H]21 [Example 142, 5-[(4aR,7aR)-1-acetyl-octahydro-1H-pyrrolo[3,4-b]pyridin-6-yl]-4-(trifluoromethyl)-2,3-dihydropyridazin-3-one] | ≥ 1000
N#Cc1ccc(N2CCN(C(=O)c3ccc(OC[C@H]4c5ccccc5CN4c4cn[nH]c(=O)c4C(F)(F)F)cc3)CC2)nc1 (single isomer, unassigned) [Example 35 Isomer B] | 100 to 1000
C[C@@H](COCCC(=O)N1CCN(c2ncc(C(F)(F)F)s2)CC1)Oc1cn[nH]c(=O)c1Br [Example 730, (S)-4-Bromo-5-((1-(3-oxo-3-(4-(5-(trifluoromethyl)thiazol-2-yl)piperazin-1-yl)propoxy)propan-2-yl)oxy)pyridazin-3(2H)-one] | 100 to 1000
6-(4-[3-[(2R)-2-[[6-Oxo-5-(trifluoromethyl)-1,6-dihydropyridazin-4-yl]amino]-2-phenylethoxy]propanoyl]piperazin-1-yl)pyridine-3-carbonitrile [Example 515A] | ≥ 1000
C[C@H](COCCC(=O)N1CCN(c2ncc(C(F)(F)F)cn2)CC1)Oc1cn[nH]c(=O)c1C(F)(F)F (single isomer, unassigned) [Example 544 Isomer B] | 100 to 1000
COc1cc2c(cc1F)CN(c1cn[nH]c(=O)c1C(F)(F)F)C2C (stereo not shown) [Example 315, 5-(5-Fluoro-6-methoxy-1-methylisoindolin-2-yl)-4-(trifluoromethyl)pyridazin-3(2H)-one] | 100 to 1000
CN1CCN(c2cccc3c2CN(c2cn[nH]c(=O)c2C(F)(F)F)C3)CC1 [Example 314, 5-(4-(4-Methylpiperazin-1-yl)isoindolin-2-yl)-4-(trifluoromethyl)pyridazin-3(2H)-one] | 100 to 1000
N#Cc1ccc(N2CCN(C(=O)CCOC[C@@H]3CCCN3c3cn[nH]c(=O)c3C(F)(F)F)CC2)cn1 [Example 475, (S)-5-(4-(3-((1-(6-Oxo-5-(trifluoromethyl)-1,6-dihydropyridazin-4-yl)pyrrolidin-2-yl)methoxy)propanoyl)piperazin-1-yl)picolinonitrile] | < 100
CC(=O)N1CCN(C(=O)c2cccc(OC[C@@H]3c4ccccc4CN3c3cn[nH]c(=O)c3C(F)(F)F)c2)CC1 [Example 407, (S)-5-(1-((3-(4-Acetylpiperazine-1-carbonyl)phenoxy)methyl)isoindolin-2-yl)-4-(trifluoromethyl)pyridazin-3(2H)-one] | < 100
CC(=O)N1CCC(Oc2cc3c(cc2F)CN(c2cn[nH]c(=O)c2C(F)(F)F)C3C)CC1 (stereo not shown) [Example 5, 5-[6-[(1-acetylpiperidin-4-yl)oxy]-5-fluoro-1-methyl-2,3-dihydro-1H-isoindol-2-yl]-4-(trifluoromethyl)-2,3-dihydropyridazin-3-one] | 100 to 1000
O=c1[nH]ncc(N2Cc3cccc(NC4CCOCC4)c3C2)c1C(F)(F)F [Example 290, 5-(4-((Tetrahydro-2H-pyran-4-yl)amino)isoindolin-2-yl)-4-(trifluoromethyl)pyridazin-3(2H)-one] | 100 to 1000
O=C(c1cncc(OCC2c3ccccc3CN2c2cn[nH]c(=O)c2C(F)(F)F)c1)N1CCN(c2ccc(Cl)cn2)CC1 (stereo not shown) [Example 376, 5-(1-(((5-(4-(5-Chloropyridin-2-yl)piperazine-1-carbonyl)pyridin-3-yl)oxy)methyl)isoindolin-2-yl)-4-(trifluoromethyl)pyridazin-3(2H)-one] | < 100
O=C(CCOC[C@H](CO)Nc1cn[nH]c(=O)c1C(F)(F)F)N1CCN(c2ccc(C(F)(F)F)cn2)CC1 [Example 604, 5-[[(2S)-1-Hydroxy-3-(3-oxo-3-[4-[5-(trifluoromethyl)pyridin-2-yl]piperazin-1-yl]propoxy)propan-2-yl]amino]-4-(trifluoromethyl)-2,3-dihydropyridazin-3-one] | < 100

More lines, now with the values ahead:

IC50 [nM] | Molecule
< 100 | N#Cc1ccc(N2CCN(C(=O)C[C@@H]3CC[C@@H]([C@@H]4CCCN4c4cn[nH]c(=O)c4C(F)(F)F)O3)CC2)nc1 [Example 141A, 6-(4-[2-[(2S,5S)-5-[(2S)-1-[6-oxo-5-(trifluoromethyl)-1,6-dihydropyridazin-4-yl]pyrrolidin-2-yl]oxolan-2-yl]acetyl]piperazin-1-yl)pyridine-3-carbonitrile]
< 100 | N#Cc1ccc(N2CCN(C(=O)c3cccc(OCCOC[C@@H]4CCN(c5cn[nH]c(=O)c5C(F)(F)F)C4)c3)CC2)nc1 [Example 470, (R)-6-(4-(3-(2-((1-(6-Oxo-5-(trifluoromethyl)-1,6-dihydropyridazin-4-yl)pyrrolidin-3-yl)methoxy)ethoxy)benzoyl)piperazin-1-yl)nicotinonitrile]
< 100 | C[C@@H](COCCC(=O)N1CCN(c2ccc(C(F)(F)F)nc2)CC1)Nc1cn[nH]c(=O)c1C(F)(F)F [Example 685, (S)-5-((1-(3-Oxo-3-(4-(6-(trifluoromethyl)pyridin-3-yl)piperazin-1-yl)propoxy)propan-2-yl)amino)-4-(trifluoromethyl)pyridazin-3(2H)-one]
< 100 | O=c1[nH]ncc(N2Cc3cccc(CNCc4ccncc4)c3C2)c1C(F)(F)F [Example 329, 5-(4-(((Pyridin-4-ylmethyl)amino)methyl)isoindolin-2-yl)-4-(trifluoromethyl)pyridazin-3(2H)-one]
< 100 | Cc1ccc(N2CCN(C(=O)c3cccc(OC[C@@H]4CCCN4c4cn[nH]c(=O)c4C(F)(F)F)c3)CC2)nc1 [Example 446, (S)-5-(2-((3-(4-(5-Methylpyridin-2-yl)piperazine-1-carbonyl)phenoxy)methyl)pyrrolidin-1-yl)-4-(trifluoromethyl)pyridazin-3(2H)-one]
< 100 | N#Cc1ccc(N2CCN(C(=O)c3ccc(OCCOc4cccc5c4CN(c4cn[nH]c(=O)c4C(F)(F)F)C5)cc3)CC2)nc1 [Example 43, 6-[4-([4-[2-([2-[6-oxo-5-(trifluoromethyl)-1,6-dihydropyridazin-4-yl]-2,3-dihydro-1H-isoindol-4-yl]oxy)ethoxy]phenyl]carbonyl)piperazin-1-yl]pyridine-3-carbonitrile]
< 100 | N#Cc1ccc(N2CCN(C(=O)c3cccc(OCC4c5ccccc5CN4c4cn[nH]c(=O)c4C(F)(F)F)c3)CC2)nc1 (stereo not shown) [Example 340, 6-(4-(3-((2-(6-Oxo-5-(trifluoromethyl)-1,6-dihydropyridazin-4-yl)isoindolin-1-yl)methoxy)benzoyl)piperazin-1-yl)nicotinonitrile]
< 100 | O=c1[nH]ncc(N2Cc3cc(F)c(OC4CCNC4)cc3C2)c1C(F)(F)F (stereo not shown) [Example 53, 5-(5-fluoro-6-(pyrrolidin-3-yloxy)isoindolin-2-yl)-4-(trifluoromethyl)pyridazin-3(2H)-one]
< 100 | N#Cc1ccc(N2CCN(C(=O)COC[C@@H]3CCCN3c3cn[nH]c(=O)c3C(F)(F)F)CC2)nc1 [Example 76, 6-[4-(2-[[(2S)-1-[6-oxo-5-(trifluoromethyl)-1,6-dihydropyridazin-4-yl]pyrrolidin-2-yl]methoxy]acetyl)piperazin-1-yl]pyridine-3-carbonitrile]
< 100 | CN1CCC(Oc2ccc3c(c2)CN(c2cn[nH]c(=O)c2C(F)(F)F)C3)C1 (stereo not shown) [Example 238, 5-(5-((1-Methylpyrrolidin-3-yl)oxy)isoindolin-2-yl)-4-(trifluoromethyl)pyridazin-3(2H)-one]
< 100 | C[C@H]1CN(c2ccc(C#N)cn2)CCN1C(=O)CCOC[C@@H]1CCCN1c1cn[nH]c(=O)c1C(F)(F)F [Example 100B, 6-[(3S)-3-methyl-4-(3-[[(2S)-1-[6-oxo-5-(trifluoromethyl)-1,6-dihydropyridazin-4-yl]pyrrolidin-2-yl]methoxy]propanoyl)piperazin-1-yl]pyridine-3-carbonitrile]
< 100 | C[C@@H](COCCC(=O)N1CCN(c2ccc(C#N)cn2)CC1)Sc1cn[nH]c(=O)c1C(F)(F)F [Example 655, (S)-6-(4-(3-(2-((6-Oxo-5-(trifluoromethyl)-1,6-dihydropyridazin-4-yl)thio)propoxy)propanoyl)piperazin-1-yl)nicotinonitrile]
< 100 | CO[C@H](C)[C@@H](COCCC(=O)N1CCN(c2ncc(C(F)(F)F)cn2)CC1)Nc1cn[nH]c(=O)c1C(F)(F)F [Example 699, 5-(((2R,3R)-3-Methoxy-1-(3-oxo-3-(4-(5-(trifluoromethyl)pyrimidin-2-yl)piperazin-1-yl)propoxy)butan-2-yl)amino)-4-(trifluoromethyl)pyridazin-3(2H)-one]
< 100 | O=C(C[C@@H]1CC[C@H](CNc2cn[nH]c(=O)c2C(F)(F)F)O1)N1CCN(c2ncc(C(F)(F)F)cn2)CC1 [Example 568 Isomer D, 5-((((2R,5S)-5-(2-Oxo-2-(4-(5-(trifluoromethyl)pyrimidin-2-yl)piperazin-1-yl)ethyl)tetrahydrofuran-2-yl)methyl)amino)-4-(trifluoromethyl)pyridazin-3(2H)-one]
< 100 | O=C(CCOC[C@@H]1CCCN1c1cn[nH]c(=O)c1C(F)(F)F)N1CCN(c2ncc(C(F)(F)F)cn2)CC1 [Example 457, (S)-5-(2-((3-Oxo-3-(4-(5-(trifluoromethyl)pyrimidin-2-yl)piperazin-1-yl)propoxy)methyl)pyrrolidin-1-yl)-4-(trifluoromethyl)pyridazin-3(2H)-one]
< 100 | O=c1[nH]ncc(N2Cc3cccc(Oc4cccnc4)c3C2)c1C(F)(F)F [Example 233, 5-(4-(Pyridin-3-yloxy)isoindolin-2-yl)-4-(trifluoromethyl)pyridazin-3(2H)-one]
< 100 | O=c1[nH]ncc(N2Cc3ccc(O[C@H]4CCCNC4)cc3C2)c1C(F)(F)F [Example 289, (S)-5-(5-(Piperidin-3-yloxy)isoindolin-2-yl)-4-(trifluoromethyl)pyridazin-3(2H)-one]

Reference: patent publication US10550105B2 (Ribon Therapeutics Inc., priority 2018, dated 2020)
